Counter-ions that a name gives are not always drawn.

One experiment has as its system LP-1 cell line. Nature of the experiment: Cell-based pERK ELISA method, LP-1 cells. As to conditions: Homo sapiens, LP-1, read-out: IC50 less than 1 μM or at least 50% inhibition at a concentration of 1 μM, LP-1 pERK ELISA. In general terms: ELISA stands for enzyme-linked immunosorbent assay.
Turning to `Nc1ccc(-c2cnc3c(-c4cccc(NC(=O)NCC(F)(F)F)c4)cnn3c2)cn1` [Example 113, 1-{3-[6-(6-Amino-pyridin-3-yl)-pyrazolo[1,5-a]pyrimidin-3-yl]-phenyl}-3-(2,2,2-trifluoro-ethyl)-urea hydrochloride salt], the IC50 was below 1 µM.

As to `O=C(NCC(F)(F)F)Nc1cccc(-c2cnc3cc(-c4cnco4)ccn23)c1` [Example 240, 1-[3-(7-Oxazol-5-yl-imidazo[1,2-a]pyridin-3-yl)-phenyl]-3-(2,2,2-trifluoro-ethyl)-urea], the IC50 was below 1 µM.

With `Cn1cc(-c2ccn3c(-c4cccc(NC(=O)NCC(F)(F)F)c4)cnc3c2)cn1` [Example 128, 1-{3-[7-(1-Methyl-1H-pyrazol-4-yl)-imidazo[1,2-a]pyridin-3-yl]-phenyl}-3-(2,2,2-trifluoro-ethyl)-urea formate], the IC50 was below 1 µM.

`CCNC(=O)Nc1cccc(-c2cnn3cc(-c4cnn(C)c4)cnc23)c1` [Example 135, 1-Ethyl-3-{3-[6-(1-methyl-1H-pyrazol-4-yl)-pyrazolo[1,5-a]pyrimidin-3-yl]-phenyl}-urea]: the IC50 was below 1 µM.

As for `Cn1cc(-c2cnc3c(-c4cccc(NC(=O)NCC(F)(F)F)c4)cnn3c2)cn1` [Example 127, 1-{3-[6-(1-Methyl-1H-pyrazol-4-yl)-pyrazolo[1,5-a]pyrimidin-3-yl]-phenyl}-3-(2,2,2-trifluoro-ethyl)-urea], the IC50 is below 1 µM.

For `CC(=O)Nc1cccc(-c2cnc3cc(-c4cccc(CN5CCOCC5)c4)ccn23)c1` [Example 9, N-{3-[7-(3-Morpholin-4-ylmethyl-phenyl)-imidazo[1,2-a]pyridin-3-yl]-phenyl}-acetamide], the IC50 is below 1 µM.

Consider `O=C(NCCF)Nc1cccc(-c2cnn3cc(-c4ccc(F)cc4)cnc23)c1` [Example 140, 1-(2-Fluoro-ethyl)-3-{3-[6-(4-fluoro-phenyl)-pyrazolo[1,5-a]pyrimidin-3-yl]-phenyl}-urea], for which the IC50 was below 1 µM.

Regarding `CCNC(=O)Nc1cccc(-c2cnc3cc(-c4ccc(OC)nc4)ccn23)c1` [Example 43, 1-Ethyl-3-{3-[7-(6-methoxy-pyridin-3-yl)-imidazo[1,2-a]pyridin-3-yl]-phenyl}-urea], the IC50 is below 1 µM.

Turning to `COC(=O)Nc1cccc(-c2cnc3cc(-c4ccc(F)cc4)ccn23)c1` [Example 16, {3-[7-(4-Fluoro-phenyl)-imidazo[1,2-a]pyridin-3-yl]-phenyl}-carbamic acid methyl ester formate salt], the IC50 was below 1 µM.

As for `Cc1ccc(-c2cnc3c(-c4cccc(NC(=O)NCC(F)(F)F)c4)cnn3c2)o1` [Example 180], the IC50 is below 1 µM.

Regarding `CS(=O)(=O)c1cccc(-c2ccn3c(-c4cccc(NC(=O)NCC(F)(F)F)c4)cnc3c2)c1` [Example 251, 1-{3-[7-(3-Methane-sulfonyl-phenyl)-imidazo[1,2-a]pyridin-3-yl]-phenyl}-3-(2,2,2-trifluoro-ethyl)-urea formate], the IC50 was below 1 µM.

For the molecule `CC(=O)Nc1cccc(-c2cnc3cc(-c4ccccc4)ccn23)c1` [Example 2, N-[3-(7-Phenyl-imidazo[1,2-a]pyridin-3-yl)-phenyl]-acetamide hydro-chloride salt], the IC50 is below 1 µM.

For `O=C(NCC(F)(F)F)Nc1cccc(-c2cnc3cc(-c4cccc(CN5CCOCC5)c4)ccn23)c1` [Example 184, 1-{3-[7-(3-Morpholin-4-ylmethyl-phenyl)-imidazo[1,2-a]pyridin-3-yl]-phenyl}-3-(2,2,2-trifluoro-ethyl)-urea Hydrochloride], the IC50 is below 1 µM.

Take `CC(=O)Nc1cccc(-c2cnc3cc(-c4ccc(CN5CCOCC5)cc4)ccn23)c1` [Example 10, N-{3-[7-(4-Morpholin-4-ylmethyl-phenyl)-imidazo[1,2-a]pyridin-3-yl]-phenyl}-acetamide hydro-chloride salt]: the IC50 is below 1 µM.

As to `O=C(NCC(F)(F)F)Nc1cccc(-c2cnc3cc(-c4ccc(F)cc4F)ccn23)c1` [Example 269, 1-{3-[7-(2,4-Difluoro-phenyl)-imidazo[1,2-a]pyridin-3-yl]-phenyl}-3-(2,2,2-trifluoro-ethyl)-urea], the IC50 was below 1 µM.

As for `O=C(NCC(F)(F)F)Nc1cccc(-c2cnc3cc(-c4cccc(C(=O)N5CCOCC5)c4)ccn23)c1` [Example 150, 1-(3-{7-[3-(Morpholine-4-carbonyl)-phenyl]-imidazo[1,2-a]pyridin-3-yl}-phenyl)-3-(2,2,2-trifluoro-ethyl)-urea Hydrochloride], the IC50 is below 1 µM.

As to `O=C(NCC(F)(F)F)Nc1cccc(-c2cnc3cc(-c4ccc(F)nc4)ccn23)c1` [Example 174, 1-{3-[7-(6-Fluoro-pyridin-3-yl)-imidazo[1,2-a]pyridin-3-yl]-phenyl}-3-(2,2,2-trifluoro-ethyl)-urea], the IC50 was below 1 µM.

With `CC(=O)Nc1cccc(-c2cnc3cc(-c4ccc(N5CCOCC5)cc4)ccn23)c1` [Example 5, N-{3-[7-(4-Morpholin-4-yl-phenyl)-imidazo[1,2-a]pyridin-3-yl]-phenyl}-acetamide], the IC50 was below 1 µM.

Turning to `CNC(=O)c1cccc(-c2ccn3c(-c4cccc(NC(=O)NCC(F)(F)F)c4)cnc3c2)c1` [Example 247, N-Methyl-3-(3-{3-[3-(2,2,2-trifluoro-ethyl)-ureido]-phenyl}-imidazo[1,2-a]pyridin-7-yl)-benzemide Formate], the IC50 was below 1 µM.

On to `CC(=O)Nc1cccc(-c2cnc3cc(-c4ccncc4)ccn23)c1` [Example 6, N-[3-(7-Pyridin-4-yl-imidazo[1,2-a]pyridin-3-yl)-phenyl]-acetamide], for which the IC50 was below 1 µM.

On to `CCNC(=O)Nc1cccc(-c2cnn3cc(-c4ccc(N)nc4)cnc23)c1` [Example 114, 1-{3-[6-(6-Amino-pyridin-3-yl)-pyrazolo[1,5-a]pyrimidin-3-yl]-phenyl}-3-ethyl-urea hydrochloride salt], for which the IC50 is below 1 µM.

With `CCNC(=O)c1cccc(-c2ccn3c(-c4cccc(NC(=O)NCC(F)(F)F)c4)cnc3c2)c1` [Example 261, N-Ethyl-3-(3-{3-[3-(2,2,2-trifluoro-ethyl)-ureido]-phenyl}-imidazo[1,2-a]pyridin-7-yl)-benzamide Formate], the IC50 is below 1 µM.

In the case of `O=C(NCC(F)(F)F)Nc1cccc(-c2cnc3cc(-c4cccc(OC5CCNCC5)c4)ccn23)c1` [Example 200, 1-(3-{7-[3-(Piperidin-4-yloxy)-phenyl]-imidazo[1,2-a]pyridin-3-yl}-phenyl)-3-(2,2,2-trifluoro-ethyl)-urea], the IC50 is below 1 µM.

For `CCNC(=O)Nc1cccc(-n2cnc3cc(-c4ccc(F)cc4)cnc32)c1` [Example 169, 1-Ethyl-3-{3-[6-(4-fluoro-phenyl)-imidazo[4,5-b]pyridin-3-yl]-phenyl}-urea], the IC50 is below 1 µM.

With `O=C(NCC(F)(F)F)Nc1cccc(-c2cnn3cc(-c4ccc(F)cc4)cnc23)c1` [Example 123, 1-{3-[6-(4-Fluoro-phenyl)-pyrazolo[1,5-a]pyrimidin-3-yl]-phenyl}-3-(2,2,2-trifluoro-ethyl)-urea], the IC50 was below 1 µM.

Still in this experiment, the particulars now being: Homo sapiens, LP-1, read-out: LP-1 pERK ELISA (μM).
For the molecule `Cc1nnc(-c2ccn3c(-c4cccc(NC(=O)NCC(F)(F)F)c4)cnc3c2)o1` [Example 329, 1-{3-[7-(5-Methyl-[1,3,4]oxadiazol-2-yl)-imidazo[1,2-a]pyridin-3-yl]-phenyl}-3-(2,2,2-trifluoro-ethyl)-urea], the IC50 was found to be 0.143 µM.

The record behind these values is patent US8895745B2, “Bicyclic heterocyclic compounds as FGFR inhibitors” (Astex Therapeutics Limited, priority 2006, dated 2014).
